Values of other authors as cited in patent US20230390244A1, “MODIFIED RELEASE COMPOSITIONS COMPRISING MELATONIN” (Inventia Healthcare Limited, priority 2020, published 2023).

How the values were obtained:
[1] = not given; remark: listed apart in the source

In the case of `COc1ccc2[nH]cc(CCNC(C)=O)c2c1` [Melatonin, N-acetyl-5-methoxytryptamine], the “solubility in organic solvents” value (acetone, ethyl acetate and methanol) is given as “soluble”, the solubility in water (water) is given as “slightly soluble” and the “time within which plasma concentrations decline” value ([1]; immediate-release formulation, depending on dose) is given as at most 1.5 h. For the same compound, the half-life ([1]; in vivo) was 40 to 50 min.
